Broadly, the ED50 is the dose at which the effect has come halfway, by size or by number of responders. For orientation: IC50 means the concentration that inhibits the measured activity by half.

Assay [1] concerns Mus musculus. The experiment in a line: Analgesic activity in sc dosed mouse assessed as inhibition of phenylquinone-induced writhing. It counts as functional. Details: log(1/ED50): unit not given here. In general terms: In writhing tests, fewer writhes than in controls are read as antinociception.
Assay [2] deals with Opioid receptor (Rattus norvegicus, UniProt P33533+P34975+P33535). The assay is described as follows: Displacement of [3H]naloxone from Sprague-Dawley rat cerebellum opioid receptor assessed as relative receptor affinity by scintillation counting. It counts as protein assay.
Where [3] appears, read: Mus musculus, sc, read-out: ED50.

Each structure is given as a SMILES string.

As to `CN1CC[C@]23CCCC[C@H]2[C@H]1Cc1ccc(O)cc13.O.O=C(O)C(O)C(O)C(=O)O`, the ED50 in assay [1] (setting [3]) is 0.24 mg/kg.

For `C[C@H]1[C@H]2Cc3ccc(O)cc3[C@]1(c1ccccc1)CCN2C.Cl`, the IC50 in assay [2] turned out to be 19 nM. Also, the “log(1/ED50)” value in assay [1] was determined as 2.82. Besides, the ED50 in assay [1] (setting [3]) stood at 0.5 mg/kg.

Consider `C[C@@H]1[C@@H]2Cc3ccc(O)cc3[C@@]1(c1ccccc1)CCN2C.Cl`, for which, in assay [2], the IC50 came to 10000 nM. In addition, the “log(1/ED50)” value in assay [1] turned out to be 1.9. Besides, the ED50 in assay [1] (setting [3]) was 4.2 mg/kg.

As for `C[C@H]1[C@H]2Cc3ccc(O)cc3[C@]1(c1ccccc1)CC[N+]2(C)C.[I-]`, the IC50 in assay [2] is 320 nM.

For `CN1CCC2(c3ccccc3)CC1Cc1ccccc12.O=C(O)C(O)C(O)C(=O)O` (single isomer, unassigned; form 1), the IC50 in assay [2] turned out to be 600 nM. Also, the “log(1/ED50)” value in assay [1] was determined as 1.88. The ED50 in assay [1] (setting [3]) was found to be 5.5 mg/kg.

With `CN1CCC2(c3ccccc3)CC1Cc1ccccc12.O=C(O)C(O)C(O)C(=O)O` (single isomer, unassigned; form 2), the IC50 in assay [2] is 3000 nM. In addition, in assay [1], the ED50 came out at 8 mg/kg and the “log(1/ED50)” value was 1.71.

As to `CCOC(=O)C1(c2ccccc2)CCN(C)CC1.Cl` [MEPERIDINE HYDROCHLORIDE], the “log(1/ED50)” value in assay [1] came out at 1.61. Besides, the ED50 in assay [1] (setting [3]) stood at 7 mg/kg.
